Laboratory results as given in PMC10892984, “Novel Antineoplastic Inducers of Mitochondrial Apoptosis in Human Cancer Cells” (Molecules, 2024).

Columns and labels:
T-47D = conditions: 48 h
[1] = Homo sapiens, 48 h, read-out: LC50

c1cc(CNC23CC4CC(CC(C4)C2)C3)cc(C[N+](Cc2cccc(CNC34CC5CC(CC(C5)C3)C4)c2)(Cc2cccc(CNC34CC5CC(CC(C5)C3)C4)c2)Cc2cccc(CNC34CC5CC(CC(C5)C3)C4)c2)c1 (stereo not drawn) [Compound 1, tetrakis{3-[(tricyclo[3.3.1.1^3,7]decan-1-ammonio)methyl]benzyl}ammonium pentachloride]
GI50 (SK-MEL-2; Homo sapiens, SK-MEL-2, 48 h): 1.06 µM
CC50 (SK-MEL-2; Homo sapiens, SK-MEL-2, 48 h, read-out: LC50): 15.6 µM
TGI (SK-MEL-2; SK-MEL-2, melanoma, mutant p53, 48 h): 3.20 µM
TGI (786-0; 786-0, renal cancer, mutant p53, 48 h): 1.85 µM
GI50 (786-0; Homo sapiens, 786-0, 48 h): 0.848 µM
CC50 (786-0; Homo sapiens, 786-0, 48 h, read-out: LC50): 4.05 µM
GI50 (T-47D; Homo sapiens, T47D): 1.34 µM
CC50 (T-47D; Homo sapiens, T47D, read-out: LC50): 38 µM
TGI (T-47D; T-47D, breast cancer, mutant p53): 6.72 µM
GI50 (RXF 393; Homo sapiens, RXF 393, 48 h): 0.811 µM
CC50 (RXF 393; Homo sapiens, RXF 393, 48 h, read-out: LC50): 3.02 µM
TGI (RXF 393; RXF 393, renal cancer, mutant p53, 48 h): 1.56 µM
GI50 (OVCAR-3; Homo sapiens, OVCAR-3, 48 h): 1.04 µM
CC50 (OVCAR-3; Homo sapiens, OVCAR-3, 48 h, read-out: LC50): 9.97 µM
TGI (OVCAR-3; OVCAR-3, ovarian cancer, mutant p53, 48 h): 2.82 µM
GI50 (OVCAR-8; Homo sapiens, OVCAR-8, 48 h): 2.07 µM
CC50 (OVCAR-8; Homo sapiens, OVCAR-8, 48 h, read-out: LC50): 35.3 µM
TGI (OVCAR-8; OVCAR-8, ovarian cancer, mutant p53, 48 h): 8.48 µM
TGI (CAKI-1; CAKI-1, renal cancer, wild-type p53, 48 h): 4.70 µM
GI50 (CAKI-1; Homo sapiens, CAKI-1, 48 h): 1.28 µM
CC50 (CAKI-1; Homo sapiens, CAKI-1, 48 h, read-out: LC50): 15.4 µM
GI50 (ACHN; Homo sapiens, 48 h): 0.874 µM
CC50 (ACHN; [1]): 5.55 µM
TGI (ACHN; renal cancer, wild-type p53, 48 h): 2.14 µM
TGI (HOP-62; HOP-62, non-small-cell lung cancer, mutant p53, 48 h): 10.1 µM
GI50 (HOP-62; Homo sapiens, HOP-62, 48 h): 2.66 µM
CC50 (HOP-62; Homo sapiens, HOP-62, 48 h, read-out: LC50): 29.7 µM
GI50 (NCI-H522; Homo sapiens, NCI-H522, 48 h): 0.731 µM
CC50 (NCI-H522; Homo sapiens, NCI-H522, 48 h, read-out: LC50): 3.3 µM
TGI (NCI-H522; NCI-H522, non-small-cell lung cancer, mutant p53, 48 h): 1.55 µM
GI50 (OVCAR-5; Homo sapiens, OVCAR-5, 48 h): 0.977 µM
CC50 (OVCAR-5; Homo sapiens, OVCAR-5, 48 h, read-out: LC50): 10.8 µM
TGI (OVCAR-5; OVCAR-5, ovarian cancer, p53 Lit. inconclusive, 48 h): 2.76 µM
TGI (BT-549; BT-549, breast cancer, mutant p53, 48 h): 2.77 µM
GI50 (BT-549; Homo sapiens, BT-549, 48 h): 1.02 µM
CC50 (BT-549; Homo sapiens, BT-549, 48 h, read-out: LC50): 10.2 µM
TGI (COLO 205; COLO 205, colon cancer, mutant p53, 48 h): 3.13 µM
GI50 (COLO 205; Homo sapiens, COLO 205, 48 h): 1.09 µM
CC50 (COLO 205; Homo sapiens, COLO 205, 48 h, read-out: LC50): 24.8 µM
GI50 (UACC-257; Homo sapiens, UACC-257, 48 h): 3.08 µM
CC50 (UACC-257; Homo sapiens, UACC-257, 48 h, read-out: LC50): 29.4 µM
TGI (UACC-257; UACC-257, melanoma, wild-type p53, 48 h): 10.8 µM
TGI (A549; A549, non-small-cell lung cancer, wild-type p53, 48 h): 8.70 µM
GI50 (A549; Homo sapiens, A549, 48 h): 2.13 µM
CC50 (A549; Homo sapiens, A549, 48 h, read-out: LC50): 24.2 µM
GI50 (SK-OV-3; Homo sapiens, SK-OV-3, 48 h): 5.11 µM
CC50 (SK-OV-3; Homo sapiens, SK-OV-3, 48 h, read-out: LC50): 25.5 µM
TGI (SK-OV-3; SK-OV-3, ovarian cancer, no p53 protein expressed, 48 h): 11.4 µM
GI50 (NCI-H23; Homo sapiens, NCI-H23, 48 h): 1.53 µM
CC50 (NCI-H23; Homo sapiens, NCI-H23, 48 h, read-out: LC50): 28.2 µM
TGI (NCI-H23; NCI-H23, non-small-cell lung cancer, mutant p53, 48 h): 6.36 µM
GI50 (IGROV1; Homo sapiens, IGROV-1, 48 h): 0.886 µM
CC50 (IGROV1; Homo sapiens, IGROV-1, 48 h, read-out: LC50): 8.65 µM
TGI (IGROV1; IGROV1, ovarian cancer, mutant p53, 48 h): 2.34 µM
GI50 (M14; Homo sapiens, M14, 48 h): 0.803 µM
CC50 (M14; Homo sapiens, M14, 48 h, read-out: LC50): 6.82 µM
TGI (M14; M14, melanoma, mutant p53, 48 h): 2.08 µM
GI50 (SK-MEL-28; Homo sapiens, SK-MEL-28, 48 h): 1.66 µM
CC50 (SK-MEL-28; Homo sapiens, SK-MEL-28, 48 h, read-out: LC50): 21.9 µM
TGI (SK-MEL-28; SK-MEL-28, melanoma, mutant p53, 48 h): 7.91 µM
GI50 (LOX IMVI; Homo sapiens, 48 h): 0.505 µM
CC50 (LOX IMVI; [1]): 3.18 µM
TGI (LOX IMVI; melanoma, wild-type p53, 48 h): 1.27 µM
GI50 (SK-MEL-5; Homo sapiens, SK-MEL-5, 48 h): 1.52 µM
CC50 (SK-MEL-5; Homo sapiens, SK-MEL-5, 48 h, read-out: LC50): 18.6 µM
TGI (SK-MEL-5; SK-MEL-5, melanoma, wild-type p53, 48 h): 6.28 µM
TGI (HCT-15; HCT-15, colon cancer, mutant p53, 48 h): 3.91 µM
GI50 (HCT-15; Homo sapiens, HCT-15, 48 h): 1.1 µM
CC50 (HCT-15; Homo sapiens, HCT-15, 48 h, read-out: LC50): 18.4 µM
GI50 (MDA-MB-468; Homo sapiens, MDA-MB-468, 48 h): 0.797 µM
CC50 (MDA-MB-468; Homo sapiens, MDA-MB-468, 48 h, read-out: LC50): 3.55 µM
TGI (MDA-MB-468; MDA-MB-468, breast cancer, mutant p53, 48 h): 1.68 µM
GI50 (SN12C; Homo sapiens, 48 h): 1.41 µM
CC50 (SN12C; [1]): 15.8 µM
TGI (SN12C; renal cancer, mutant p53, 48 h): 4.43 µM
GI50 (KM-12; Homo sapiens, KM12, 48 h): 1.65 µM
CC50 (KM-12; Homo sapiens, KM12, 48 h, read-out: LC50): 20.6 µM
TGI (KM-12; KM-12, colon cancer, mutant p53, 48 h): 6.75 µM
GI50 (UO-31; Homo sapiens, UO-31, 48 h): 0.817 µM
CC50 (UO-31; Homo sapiens, UO-31, 48 h, read-out: LC50): 4.73 µM
TGI (UO-31; UO-31, renal cancer, wild-type p53, 48 h): 1.96 µM
TGI (HCC-2998; HCC-2998, colon cancer, mutant p53, 48 h): 5.31 µM
GI50 (HCC-2998; Homo sapiens, HCC 2998, 48 h): 1.22 µM
CC50 (HCC-2998; Homo sapiens, HCC 2998, 48 h, read-out: LC50): 22.6 µM
